In US12514832B2, “Methods for using low-dose colchicine after myocardial infarction” (INSTITUT DE CARDIOLOGIE DE MONTREAL, priority 2019, dated 2026):

Legend:
[1] = COLCOT safety and adverse events (safety population); type: in vivo, human
Procedure: All serious adverse events were recorded. The only other adverse events recorded were those that were considered to be related to the gastrointestinal system, events that were judged by the investigator to be related to colchicine or placebo, or laboratory abnormalities that had been judged by the investigator to be clinically significant.

[2] = test system: patients with stable coronary disease; conditions: LoDoCo, 0.5 mg once daily, 532 patients, not placebo-controlled; cited from earlier work
[3] = test system: white blood cell count; test: COLCOT white blood cell counts (total, lymphocytes, neutrophils); type: in vivo, human; conditions: for Total white blood cell count, geometric mean / Total white blood cell count, Adjusted GM percent change: N=992
Text: Additional prespecified exploratory end points included the change from baseline to 6 months in the high-sensitivity C-reactive protein level and the change from baseline to 12 months in the white-cell count. The C-reactive protein biomarker substudy was implemented after a protocol amendment and was optional for sites and for patients; 34 sites chose to participate in this substudy.
The analysis of the primary end point was repeated in the per-protocol population (i.e., patients without major protocol deviations). Secondary and exploratory end points expressed as time to event were analyzed similarly. The changes from baseline to follow-up were analyzed with the use of an analysis of covariance model with adjustment for baseline value, and estimates of treatment effect are presented with 95% confidence intervals.
In Table 8, the placebo-adjusted geometric mean percent change was obtained by exponentiating the adjusted mean difference between groups from the analysis of covariance model (based on log-transformed data), then subtracting 1 and multiplying by 100.
In addition, the C-reactive protein biomarker sub-study was implemented following a protocol amendment and was optional for sites and for patients; 34 sites accepted to participate in this substudy. There were 213 and 208 patients who provided blood samples at baseline and 6 months, respectively. Paired baseline and 6-month hs-CRP values were available in 207 patients. Clinically available white blood cell counts were obtained from 2598 patients at baseline and 1998 patients at 12 months, and paired baseline and 12-month values were available in 1972 patients. Statistical analysis was conducted on the patients who provided both baseline and follow-up data and as these were exploratory analyses, no missing data was imputed.
Information about white-cell counts at baseline and at the 12-month follow-up were also available for a relatively small subgroup of 1972 patients. The adjusted geometric mean percent changes from baseline to 1 year in the total white-cell count were −18.8% in the colchicine group and −19.0% in the placebo group, with no significant difference between groups (0.3% percentage points; 95% CI, −2.2 to 2.7).

[4] = baseline to 12 months, colchicine vs placebo

## COc1cc2c(c(OC)c1OC)-c1ccc(OC)c(=O)cc1[C@@H](NC(C)=O)CC2 [Colchicine, colchicine]
[1]; at the end of the trial
  trial regimen discontinued, percent of patients: 18.4%
[1]; colchicine vs placebo
  incidence of septic shock (in words): did not increase the incidence of septic shock
[1]; safety population
  Cancers, excluding nonmelanoma skin cancers, number of patients: 42
  Cancers, excluding nonmelanoma skin cancers, percent: 1.8%
[1]; safety population, N=2330
  Anemia, number of patients: 14
  Anemia, percent: 0.6%
  Any related adverse event, number of patients: 372
  Any related adverse event, percent: 16.0%
  Any serious adverse event, number of patients: 383
  Any serious adverse event, percent: 16.4%
  Cancer, number of patients: 43
  Cancer, percent: 1.8%
  Diarrhea adverse event, number of patients: 225
  Diarrhea adverse event, percent: 9.7%
  Flatulence adverse event, number of patients: 15
  Flatulence adverse event, percent: 0.6%
  Gastrointestinal adverse event, number of patients: 408
  Gastrointestinal adverse event, percent: 17.5%
  Gastrointestinal hemorrhage, number of patients: 7
  Gastrointestinal hemorrhage, percent: 0.3%
  Gastrointestinal serious adverse event, number of patients: 46
  Gastrointestinal serious adverse event, percent: 2.0%
  Hospitalization for heart failure, number of patients: 25
  Hospitalization for heart failure, percent: 1.1%
  Infection serious adverse event, number of patients: 51
  Infection serious adverse event, percent: 2.2%
  Leukopenia, number of patients: 2
  Leukopenia, percent: 0.1%
  Nausea adverse event, number of patients: 43
  Nausea adverse event, percent: 1.8%
  Pneumonia serious adverse event, number of patients: 21
  Pneumonia serious adverse event, percent: 0.9%
  Septic shock serious adverse event, number of patients: 2
  Septic shock serious adverse event, percent: 0.1%
  Thrombocytopenia, number of patients: 3
  Thrombocytopenia, percent: 0.1%
[1]; statins used in 99% of trial participants
  serious adverse event of myopathy: no serious adverse event of myopathy linked to colchicine occurred
[2]
  cardiovascular events versus no colchicine (in words): fewer cardiovascular events than those not receiving colchicine
[3]; at 12 months
  Circulating lymphocytes, geometric mean: 1.83 10^3/μL
  Circulating neutrophils, geometric mean: 3.95 10^3/μL
  Total white blood cell count, geometric mean: 6.95 10^3/μL
[3]; at Randomization (baseline)
  Circulating lymphocytes, geometric mean: 1.79 10^3/μL
  Circulating neutrophils, geometric mean: 5.45 10^3/μL
  Total white blood cell count, geometric mean: 8.54 10^3/μL
[3]; baseline to 12 months
  Circulating lymphocytes, Adjusted GM percent change: 1.80%
  Circulating neutrophils, Adjusted GM percent change: −27.63%
  Total white blood cell count, Adjusted GM percent change: −18.81%
[3]; baseline to 12 months, listed as colchicine
  Total white blood cell count, Adjusted GM percent change: −18.8%
[3]; [4]
  Circulating lymphocytes, Placebo-adjusted GM percent change: 1.10%
  Circulating neutrophils, Placebo-adjusted GM percent change: 0.45%
  Total white blood cell count, Placebo-adjusted GM percent change: 0.26%
[3]; baseline to 12 months, colchicine vs placebo, listed as colchicine
  Total white blood cell count, Placebo-adjusted GM percent change: 0.3%
